Experimental data from ChEMBL document CHEMBL1136629, “Amphipathic 3-phenyl-7-propylbenzisoxazoles; human pPaR gamma, delta and alpha agonists” (Bioorg Med Chem Lett, 2003).

System: not listed separately
Experiment: Bioavailability of compound was determined
Assay type: ADME, organism-based
Conditions: eutheria, in vivo

In the case of `CCCc1c(OCCCCOc2cccc(CC(=O)O)c2)ccc2c(-c3ccccc3)noc12`, the bioavailability is reported as 76%.

Target: T1, Peroxisome proliferator-activated receptor gamma (Homo sapiens, UniProt P37231)
T1 sequence (P37231 whole entry): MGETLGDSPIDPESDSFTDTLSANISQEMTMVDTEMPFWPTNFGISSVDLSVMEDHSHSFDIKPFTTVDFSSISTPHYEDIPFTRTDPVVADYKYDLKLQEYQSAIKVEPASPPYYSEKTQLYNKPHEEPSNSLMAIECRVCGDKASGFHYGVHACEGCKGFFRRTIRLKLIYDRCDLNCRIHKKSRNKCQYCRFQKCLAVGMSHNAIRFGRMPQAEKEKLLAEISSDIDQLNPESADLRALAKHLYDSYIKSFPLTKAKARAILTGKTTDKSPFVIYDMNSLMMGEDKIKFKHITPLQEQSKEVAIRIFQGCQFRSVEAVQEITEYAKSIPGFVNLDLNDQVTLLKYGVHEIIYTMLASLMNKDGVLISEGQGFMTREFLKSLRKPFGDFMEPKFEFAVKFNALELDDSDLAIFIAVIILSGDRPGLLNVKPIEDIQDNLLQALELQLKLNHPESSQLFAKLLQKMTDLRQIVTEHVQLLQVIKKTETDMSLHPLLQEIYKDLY
Experiment: In vitro binding affinity towards human peroxisome proliferator activated receptor gamma (PPAR gamma)
Conditions: not given

Going from `CCCc1c(OCCCCOc2ccc(CCC(=O)O)cc2)ccc2c(-c3ccccc3)noc12` to `CCCc1c(OCCCOc2ccc(CCC(=O)O)cc2)ccc2c(-c3ccccc3)noc12`, the Ki rises from 0.0089 µM to 0.032 µM (3.6-fold).

`CCCc1c(OCCCOc2cccc(CCC(=O)O)c2)ccc2c(-c3ccccc3)noc12` and `CCCc1c(OCCCOc2cccc(CC(=O)O)c2)ccc2c(-c3ccccc3)noc12` are within 1.5-fold of each other in Ki: 0.448 µM for the first, 0.662 µM for the second.

Going from `CCCc1c(OCCCCOc2cccc(C(C)(C)C(=O)O)c2)ccc2c(-c3ccccc3)noc12` to `CCCc1c(OCCCCOc2ccc(C(C)(C)C(=O)O)cc2)ccc2c(-c3ccccc3)noc12`, the Ki falls from 0.026 µM to 0.017 µM (1.5-fold).

Compared with `CCCc1c(OCCCCOc2ccc(OC(C)(C)C(=O)O)cc2)ccc2c(-c3ccccc3)noc12`, `CCCc1c(OCCCCOc2ccc(C(=O)O)cc2)ccc2c(-c3ccccc3)noc12` is higher in Ki: 0.0024 µM for the first, > 5.3 µM for the second.

Compared with `CCCc1c(OCCCOc2ccccc2CC(=O)O)ccc2c(-c3ccccc3)noc12`, `CCCc1c(OCCCCOc2cccc(CC(=O)O)c2)ccc2c(-c3ccccc3)noc12` is 160-fold lower in Ki: 0.498 µM for the first, 0.0031 µM for the second.

Going from `CCCc1c(OCCCCOc2ccc(/C=C/C(=O)O)cc2)ccc2c(-c3ccccc3)noc12` to `CCCc1c(OCCCOc2ccc(CCCC(=O)O)cc2)ccc2c(-c3ccccc3)noc12`, the Ki rises from 0.013 µM to 0.145 µM (11-fold). The first binds more tightly here.

Going from `CCCc1c(OCCOc2ccc(CCC(=O)O)cc2)ccc2c(-c3ccccc3)noc12` to `CCCc1c(OCCCOc2ccc(OC(C)C(=O)O)cc2)ccc2c(-c3ccccc3)noc12` (stereo not given), the Ki falls from 0.304 µM to 0.022 µM (14-fold). The second binds more tightly here.

`CCCc1c(OCCCCOc2cccc(OCC(=O)O)c2)ccc2c(-c3ccccc3)noc12` showed a Ki of 0.052 µM.

Target: T2, Peroxisome proliferator-activated receptor gamma (Homo sapiens) (UniProt P37231)
T2 sequence (whole entry): T1 sequence (P37231 whole entry)
Experiment: Agonistic transcriptional activity in COS1 cells expressing GAL 4-PPAR gamma at 3 uM; Maximal percent
Assay type: functional, cell-based
Conditions: COS-1

For `CCCc1c(OCCCOc2ccc(CCC(=O)O)cc2)ccc2c(-c3ccccc3)noc12`, the Emax (% of standard agonist) was 99%.

Target: T3, Peroxisome proliferator-activated receptor delta (Homo sapiens, UniProt Q03181)
T3 sequence (Q03181 whole entry): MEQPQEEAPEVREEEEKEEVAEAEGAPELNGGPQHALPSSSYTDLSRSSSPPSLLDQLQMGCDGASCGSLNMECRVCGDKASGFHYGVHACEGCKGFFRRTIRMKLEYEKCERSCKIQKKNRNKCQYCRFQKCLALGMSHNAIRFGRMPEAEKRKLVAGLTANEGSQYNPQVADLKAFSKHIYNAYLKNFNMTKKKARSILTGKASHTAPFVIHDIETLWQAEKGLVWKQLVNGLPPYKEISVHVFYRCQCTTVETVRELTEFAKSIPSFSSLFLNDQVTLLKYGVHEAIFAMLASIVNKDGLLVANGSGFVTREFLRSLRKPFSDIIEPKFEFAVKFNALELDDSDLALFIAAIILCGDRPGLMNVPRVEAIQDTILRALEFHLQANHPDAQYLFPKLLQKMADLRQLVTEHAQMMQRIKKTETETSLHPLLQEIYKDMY
Experiment: Agonistic activity was determined in COS1 cells transfected with GAL 4-PPAR delta receptor
Assay type: functional, cell-based, COS-1
Conditions: not given

In order of rising EC50:
1. CCCc1c(OCCCOc2ccc(OC(C)C(=O)O)cc2)ccc2c(-c3ccccc3)noc12 (stereo not given)  0.013 µM
2. CCCc1c(OCCCCOc2cccc(CC(=O)O)c2)ccc2c(-c3ccccc3)noc12  0.02 µM
3. CCCc1c(OCCCCOc2ccc(OC(C)(C)C(=O)O)cc2)ccc2c(-c3ccccc3)noc12  0.172 µM
4. CCCc1c(OCCCOc2ccc(CCCC(=O)O)cc2)ccc2c(-c3ccccc3)noc12  0.183 µM
5. CCCc1c(OCCCCOc2cccc(C(C)(C)C(=O)O)c2)ccc2c(-c3ccccc3)noc12  0.4 µM
6. CCCc1c(OCCCCOc2ccc(/C=C/C(=O)O)cc2)ccc2c(-c3ccccc3)noc12  0.64 µM

Target: T4, Peroxisome proliferator-activated receptor alpha (Homo sapiens, UniProt Q07869)
T4 sequence (Q07869 whole entry): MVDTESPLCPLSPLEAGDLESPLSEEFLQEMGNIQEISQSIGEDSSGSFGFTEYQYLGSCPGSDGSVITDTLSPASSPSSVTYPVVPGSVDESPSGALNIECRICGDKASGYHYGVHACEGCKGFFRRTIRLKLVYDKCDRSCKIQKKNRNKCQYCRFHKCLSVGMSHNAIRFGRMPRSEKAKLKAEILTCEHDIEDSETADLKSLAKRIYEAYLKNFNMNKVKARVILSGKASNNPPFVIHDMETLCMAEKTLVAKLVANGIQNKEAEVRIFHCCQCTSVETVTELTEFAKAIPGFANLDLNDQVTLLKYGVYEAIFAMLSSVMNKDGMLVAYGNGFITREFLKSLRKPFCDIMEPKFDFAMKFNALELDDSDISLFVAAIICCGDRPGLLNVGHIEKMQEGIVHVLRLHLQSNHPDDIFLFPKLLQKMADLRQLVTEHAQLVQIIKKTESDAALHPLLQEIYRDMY
Experiment: In vitro binding affinity towards human peroxisome proliferator activated receptor alpha (PPAR alpha)
Conditions: not given

In order of falling Ki:
1. CCCc1c(OCCCCOc2ccc(C(=O)O)cc2)ccc2c(-c3ccccc3)noc12  0.92 µM
2. CCCc1c(OCCCOc2ccccc2CC(=O)O)ccc2c(-c3ccccc3)noc12  0.489 µM
3. CCCc1c(OCCCCOc2cccc(OCC(=O)O)c2)ccc2c(-c3ccccc3)noc12  0.133 µM
4. CCCc1c(OCCCOc2ccc(CCCC(=O)O)cc2)ccc2c(-c3ccccc3)noc12  0.121 µM
5. CCCc1c(OCCCOc2cccc(CC(=O)O)c2)ccc2c(-c3ccccc3)noc12  0.076 µM
6. CCCc1c(OCCCOc2cccc(CCC(=O)O)c2)ccc2c(-c3ccccc3)noc12  0.053 µM
7. CCCc1c(OCCCCOc2cccc(C(C)(C)C(=O)O)c2)ccc2c(-c3ccccc3)noc12  0.046 µM
8. CCCc1c(OCCCCOc2ccc(C(C)(C)C(=O)O)cc2)ccc2c(-c3ccccc3)noc12  0.023 µM
9. CCCc1c(OCCCCOc2ccc(/C=C/C(=O)O)cc2)ccc2c(-c3ccccc3)noc12  0.018 µM
10. CCCc1c(OCCCOc2ccc(OC(C)C(=O)O)cc2)ccc2c(-c3ccccc3)noc12 (stereo not given)  0.0093 µM
11. CCCc1c(OCCCCOc2ccc(CCC(=O)O)cc2)ccc2c(-c3ccccc3)noc12  0.0076 µM
12. CCCc1c(OCCCOc2ccc(CCC(=O)O)cc2)ccc2c(-c3ccccc3)noc12  0.0073 µM
13. CCCc1c(OCCCCOc2cccc(CC(=O)O)c2)ccc2c(-c3ccccc3)noc12  0.0072 µM

Target: T5, Peroxisome proliferator-activated receptor alpha (Homo sapiens) (UniProt Q07869)
T5 sequence (whole entry): T4 sequence (Q07869 whole entry)
Experiment: Agonistic transcriptional activity in COS1 cells expressing GAL 4-PPAR alpha at 3 uM; Maximal percent
Assay type: functional, cell-based
Conditions: COS-1

`CCCc1c(OCCCOc2ccc(CCC(=O)O)cc2)ccc2c(-c3ccccc3)noc12` showed an activation of 42%.

Target: T1, Peroxisome proliferator-activated receptor gamma
Experiment: Agonistic activity was determined in COS1 cells transfected with GAL 4-PPAR gamma receptor
Assay type: functional, cell-based, COS-1
Conditions: not given

In order of rising EC50:
1. CCCc1c(OCCCCOc2ccc(OC(C)(C)C(=O)O)cc2)ccc2c(-c3ccccc3)noc12  0.002 µM
2. CCCc1c(OCCCCOc2cccc(CC(=O)O)c2)ccc2c(-c3ccccc3)noc12  0.006 µM
3. CCCc1c(OCCCCOc2ccc(C(C)(C)C(=O)O)cc2)ccc2c(-c3ccccc3)noc12  0.01 µM
4. CCCc1c(OCCCOc2ccc(OC(C)C(=O)O)cc2)ccc2c(-c3ccccc3)noc12 (stereo not given)  0.027 µM
5. CCCc1c(OCCCCOc2ccc(/C=C/C(=O)O)cc2)ccc2c(-c3ccccc3)noc12  0.029 µM
6. CCCc1c(OCCCCOc2cccc(C(C)(C)C(=O)O)c2)ccc2c(-c3ccccc3)noc12  0.052 µM
7. CCCc1c(OCCCCOc2cccc(OCC(=O)O)c2)ccc2c(-c3ccccc3)noc12  0.087 µM
8. CCCc1c(OCCCOc2ccc(CCCC(=O)O)cc2)ccc2c(-c3ccccc3)noc12  0.156 µM
9. CCCc1c(OCCCCOc2ccc(CCC(=O)O)cc2)ccc2c(-c3ccccc3)noc12  0.485 µM

Target: T4, Peroxisome proliferator-activated receptor alpha
Experiment: Agonistic activity was determined in COS1 cells transfected with GAL 4-PPAR alpha receptor
Assay type: functional, cell-based, COS-1
Conditions: not given

In order of rising EC50:
1. CCCc1c(OCCCOc2ccc(OC(C)C(=O)O)cc2)ccc2c(-c3ccccc3)noc12 (stereo not given)  0.002 µM
2. CCCc1c(OCCCCOc2ccc(C(C)(C)C(=O)O)cc2)ccc2c(-c3ccccc3)noc12  0.002 µM
3. CCCc1c(OCCCOc2ccc(CCCC(=O)O)cc2)ccc2c(-c3ccccc3)noc12  0.003 µM
4. CCCc1c(OCCCCOc2cccc(CC(=O)O)c2)ccc2c(-c3ccccc3)noc12  0.005 µM
5. CCCc1c(OCCCCOc2ccc(/C=C/C(=O)O)cc2)ccc2c(-c3ccccc3)noc12  0.013 µM
6. CCCc1c(OCCCCOc2cccc(C(C)(C)C(=O)O)c2)ccc2c(-c3ccccc3)noc12  0.05 µM
7. CCCc1c(OCCCCOc2cccc(OCC(=O)O)c2)ccc2c(-c3ccccc3)noc12  0.248 µM
8. CCCc1c(OCCCCOc2ccc(CCC(=O)O)cc2)ccc2c(-c3ccccc3)noc12  0.429 µM

Target: T3, Peroxisome proliferator-activated receptor delta
Conditions: not given

Going from `CCCc1c(OCCCCOc2ccc(CCC(=O)O)cc2)ccc2c(-c3ccccc3)noc12` to `CCCc1c(OCCCOc2ccc(CCC(=O)O)cc2)ccc2c(-c3ccccc3)noc12`, the Ki falls from 0.0375 µM to 0.002 µM (19-fold). The second binds more tightly here.

`CCCc1c(OCCCOc2cccc(CCC(=O)O)c2)ccc2c(-c3ccccc3)noc12` and `CCCc1c(OCCCOc2cccc(CC(=O)O)c2)ccc2c(-c3ccccc3)noc12` are within 1.5-fold of each other in Ki: 0.021 µM for the first, 0.026 µM for the second.

`CCCc1c(OCCCCOc2cccc(C(C)(C)C(=O)O)c2)ccc2c(-c3ccccc3)noc12` and `CCCc1c(OCCCCOc2ccc(C(C)(C)C(=O)O)cc2)ccc2c(-c3ccccc3)noc12` are within 1.5-fold of each other in Ki: 0.165 µM for the first, 0.203 µM for the second.

Going from `CCCc1c(OCCCCOc2ccc(OC(C)(C)C(=O)O)cc2)ccc2c(-c3ccccc3)noc12` to `CCCc1c(OCCCCOc2ccc(C(=O)O)cc2)ccc2c(-c3ccccc3)noc12`, the Ki rises from 0.023 µM to > 14 µM.

Going from `CCCc1c(OCCCOc2ccccc2CC(=O)O)ccc2c(-c3ccccc3)noc12` to `CCCc1c(OCCCCOc2cccc(CC(=O)O)c2)ccc2c(-c3ccccc3)noc12`, the Ki falls from 0.062 µM to 0.0003 µM (210-fold).

Compared with `CCCc1c(OCCCCOc2ccc(/C=C/C(=O)O)cc2)ccc2c(-c3ccccc3)noc12`, `CCCc1c(OCCCOc2ccc(CCCC(=O)O)cc2)ccc2c(-c3ccccc3)noc12` is 7-fold lower in Ki: 0.265 µM for the first, 0.038 µM for the second. The second binds more tightly here.

Compared with `CCCc1c(OCCOc2ccc(CCC(=O)O)cc2)ccc2c(-c3ccccc3)noc12`, `CCCc1c(OCCCOc2ccc(OC(C)C(=O)O)cc2)ccc2c(-c3ccccc3)noc12` (stereo not given) is 2.4-fold lower in Ki: 0.011 µM for the first, 0.0046 µM for the second. The second binds more tightly here.

Compound `CCCc1c(OCCCCOc2cccc(OCC(=O)O)c2)ccc2c(-c3ccccc3)noc12` has a Ki of 0.047 µM.

System: not listed separately
Experiment: AUC of compound for a 2 mpk po dose of the sodium salt in rats.
Assay type: ADME, organism-based
Conditions: rat, plasma, 2 mg/kg

In the case of `CCCc1c(OCCCCOc2cccc(CC(=O)O)c2)ccc2c(-c3ccccc3)noc12`, the AUC is reported as 4.2 µM·h.
